Broadly, the pKa is the pH at which an ionisable group is half protonated. Low readings indicate a group that gives up its proton readily, high ones a group that holds its proton tightly.

Where a SMILES comes first, the peptide text is derived from it.

The conditions of the first data set: acidic group.
As for `CC(C)c1cccc2ccc(O)cc12`, the pKa was found to be 9.52.

For the compound `CNc1cc[n+](O)cc1`, the pKa amounted to 3.85. `O=C(O)C[C@@H]1NC(=O)CNC1=O` had a pKa of 3.93. On the same count and under the same terms, next, `CC(C)CC(N)C(=O)NC(CC(N)=O)C(=O)O` (stereo not drawn) (H-Leu-Asn-OH; configuration not given here): 8.23; `O=C(NCO)c1ccccc1`: 13.1; `NC(=O)C1CCCCN1` (centres undefined): 8.9. Same read-out and setting: next, `CC1CCn2nnnc2C(C(=O)O)C1` (centres undefined): 3.2; `CC(C)C1C(=O)c2ccccc2C1=O`: 7.4; `NS(=O)(=O)c1nc2ccccc2s1`: 7.8. On the same count and under the same terms, under `Cc1ccccc1NCCS` stands 9.6.

Turning to `C[N+](C)(C)CCCc1cccc(O)c1`, the pKa worked out at 9.64.

In turn, `C/C=C/C=C/C(=O)O` showed a pKa of 4.53. On to `O=[Se](O)c1cccc(-c2ccccc2)c1`, for which the pKa amounted to 4.87.

The compound `O=C(O)[C@H]1CC[C@H](O)CC1` displayed a pKa of 4.68. Regarding `Oc1cc2ccccc2n[nH+]1`, the pKa came out at 0.21.

Turning to `CCC[NH2+]C(C)C(=O)O` (centres undefined), the pKa was determined as 2.21. The same measure, in the same setting: under `ONc1ccc(O)cc1` stands 9.83; under `[O-]c1ccc(Nc2ccc(O)cc2)cc1`, 10.6. Still for that read-out and setting: next, `COc1cc[n+](O)cc1`: 2.05. Same read-out and setting: under `Cc1cc(C)c2c(O)c(CC(=O)O)oc2c1` stands 4.75; under `NC(Cc1c[nH]c(=S)[nH]1)C(=O)[O-]` (centres undefined), 11.4. As to `CC/N=C(\N=[N+]=[N-])c1ccccc1O`, the pKa amounted to 9.4.

Compound `O=C1/C(=N\O)CC/C1=N\O` had a pKa of 7.95. The same measure, in the same setting: next, `COCC1=C(C(=O)O)CC1`: 4.31. On the same count and under the same terms, under `Cc1ccc(S(N)(=O)=O)cc1` stands 9.89. `CC(=O)/C(=N/O)c1ccccc1` yielded a pKa of 8.85. Still for that read-out and setting: next, `CC(=O)N[C@H]1CC(=O)NC1=O`: 8.85; `Cn1c(=O)c2[nH]c([N+](=O)[O-])nc2n(C)c1=O`: 3.58. The same measure, in the same setting: next, `O=C(O)c1ccc2cc3ccccc3cc2c1`: 4.18; `C[n+]1nc(O)ccc1[O-]`: 5.65; `CC(C)(C)[NH2+]CC(=O)c1ccc(O)cc1`: 7.9. `COc1ccc(-c2c(O)c2=O)cc1` showed a pKa of 2.33. The same measure, in the same setting: next, `O=C(O)C(CO)[NH2+]Cc1cc(Cl)ccc1O` (centres undefined): 2.12; `COc1ccc2cc(O)ccc2c1`: 9.64. On the same count and under the same terms, next, `Cc1nnc([N-]S(=O)(=O)c2ccc(O)cc2)s1`: 8.81; `C=CC(O)OCC(C)O` (centres undefined): 5.5; `CCC1(C)CC(=O)NC1=O` (centres undefined): 9.34. Compound `[NH3+]CCC[SeH]` gave a pKa of 6.27. Same read-out and setting: under `OC(O)c1ccncc1` stands 12.2. On the same count and under the same terms, next, `CC1(C)NC(=O)NC1=O`: 9.19; `O=C1CC(=O)CS(=O)C1`: 3.12; `NC(=O)/C(=N\O)c1ccccc1`: 10.1. Same read-out and setting: next, `CC(C)(S)[C@@H](C(=O)[O-])n1ccnc1Cc1ccccc1`: 10.3; `CCCCCC(=O)O`: 4.85. `O=C(CC(=O)c1ccccc1)Nc1cccc([N+](=O)[O-])c1` came in with a pKa of 9.54. Same read-out and setting: under `CCCCCCC(=O)NO` stands 9.62. Still for that read-out and setting: under `NNC(=O)C(F)(F)C(F)(F)C(F)(F)F` stands 8.02; under `O=C([O-])C[NH+](CCNS(=O)(=O)c1ccccc1)CC(=O)[O-]`, 7.82. As for `Cc1ccc([P+](c2ccc(C)cc2)(c2ccc(C)cc2)C2c3ccccc3-c3ccccc32)cc1`, the pKa was determined as 9.64. On the same count and under the same terms, under `CC(C)=CCC1C(=O)C(CC=C(C)C)(CC=C(C)C)C(O)(C(=O)O)C1=O` (centres undefined) stands 3.9; under `CNC(=O)c1ncnc2nc[nH]c12`, 8.9.

In the case of `CC1(C)CC(=O)C2=C(C1)NC1=C(C2)C(=O)CC(C)(C)C1`, the pKa stood at 3.6.

For `CC(=O)Nc1ccc(O)cc1`, the pKa stood at 9.5.

In turn, `O=C(O)c1cscn1` displayed a pKa of 3.64. Still for that read-out and setting: next, `C/C=C/c1ccc2cccnc2c1O`: 11.3; `O=CCC=O`: 4.57; `NS(=O)(=O)c1ccc(Cl)c(Cl)c1`: 8.94. Same read-out and setting: under `Clc1c(Cl)c(Cl)c2[nH]nnc2c1Cl` stands 4.52; under `O=[N+]([O-])CCc1ccccc1`, 8.55; under `OCCC[n+]1cc(Br)c2ccccc2c1`, 12.

Staying with this data set, now noted: basic group.
`CNCCCNC` registered a pKa of 10.7.

Regarding `CC(C)(CN)CN`, the pKa was 10.2. Same read-out and setting: under `Cc1cc(Br)ccc1N` stands 3.58; under `CN(C)C[C@@H]1[C@H](CO)[C@H]2C=C[C@@H]1C2`, 9.54; under `c1cc(N2CCCCC2)ccc1N1CCCCC1`, 6.5. On the same count and under the same terms, under `Cc1nc2cc(N)ccc2n1C` stands 7; under `CCNc1ncnc2c1cnn2C`, 4.24. For the compound `CC(C)CNCC(=O)c1ccc(O)cc1`, the pKa was determined as 7.74. The same measure, in the same setting: under `COc1ccc2c(c1)NCC[NH2+]2` stands 1.93; under `Cc1nc2cccc([N+](=O)[O-])c2c(NCCC[NH+](C)C)c1C`, 6.64. Same read-out and setting: next, `Cc1cc(CO)c(C)c(C)n1`: 7.3; `[NH3+][C@@H](Cc1c[nH]cn1)C(=O)NCC(=O)[O-]`: 5.8; `Nc1cccc(-c2ccccc2)c1`: 4.28. On the same count and under the same terms, next, `Nc1cccnc1N`: 6.84.

Compound `NC(=O)Cc1cccnc1` came in with a pKa of 4.72. With `Cc1ccc(N(CC2CO2)CC2CO2)cc1` (centres undefined), the pKa was -0.48. `Nc1ncc(Cl)s1` gave a pKa of 3.66. The compound `C[C@H]1C[C@@H]2CCN1C2` came in with a pKa of 10.6.

For the compound `c1cc(N2CCOCC2)ccn1`, the pKa is 8.79. As for `Nc1ncc2ncn([C@H]3O[C@@H](CO)[C@H](O)[C@@H]3O)c2n1`, the pKa stood at 3.4.

Consider `Cc1cc(C)c(CN)cc1N`, for which the pKa amounted to 9.77.

Consider `CN(C)c1ncc([N+](=O)[O-])s1`, for which the pKa is 0.48. On the same count and under the same terms, under `CC(C)N(CCC(c1ccccc1)c1ccccn1)C(C)C` (centres undefined) stands 10.5; under `Cc1cncc[nH+]1`, -4.89. Same read-out and setting: under `C1CSCN1` stands 6.31; under `NC(Cc1c[nH]c(=S)[nH]1)C(=O)[O-]` (centres undefined), 8.47. In the case of `NCc1cc(N)cc(Cl)c1`, the pKa was found to be 9.54.

For `CCN(CC)S(=O)(=O)c1ccc(N)cc1`, the pKa amounted to 1.75. Same read-out and setting: under `CNc1cnccc1N` stands 9.14; under `COc1ccc(S(=O)(=O)NCCCN2CCOCC2)c(OC)c1OC`, 6.76. On the same count and under the same terms, next, `Cc1cnc2c(ccc3cccnc32)c1`: 5; `CCOc1c(C#N)cnc2ccccc12`: 3.18. Still for that read-out and setting: next, `CCOCCn1c(CN2CCCN(CCCCn3cc(C(=O)[O-])cn3)CC2)nc2ccccc21`: 9.1; `C#CCCCCN(C)C`: 9.24; `Cc1ccn(-c2ccccn2)n1`: 1.36. In the case of `Cc1cnccn1`, the pKa was 1.42.

In turn, `C#CCCCCCCN` yielded a pKa of 10.7. Same read-out and setting: under `C[Si](C)(CCN)O[Si](C)(C)CCN` stands 10.7; under `CC(N)c1ccccc1` (centres undefined), 9.36; under `CNNC1CCN(C(C)C)CC1`, 9.1. For `Nc1cnnc2ccccc12`, the pKa stood at 6.84.

In the case of `Nc1ccccc1-c1ccccc1`, the pKa stood at 3.81.

`CCN(Cl)CC` gave a pKa of 1.02. On the same count and under the same terms, next, `Cc1cc(N)ccc1-c1ccc([NH3+])cc1C`: 3.7.

For `CC#C[C@H](C)Oc1cc(N)c(Cl)cc1C(=O)N[C@@H]1C[C@H]2CC[C@@H](C1)N2C`, the pKa worked out at 9.95. The compound `Nc1ncnc(N)c1N` returned a pKa of 5.78. Still for that read-out and setting: under `CCCN(CCC)CCC` stands 10.5; under `Cc1cccc(/N=N/c2ccc(N)cc2)c1`, 2.88. The same measure, in the same setting: under `CN/C=[NH+]/c1cccc(-c2csc(N=C(N)N)n2)c1` stands 6.29; under `CCN(CC)CCN=C(c1ccccc1C)c1ccccc1C`, 8.8.

`Nc1cccc([NH3+])c1O` had a pKa of 2.7. Still for that read-out and setting: under `CCN(CC)CCC[NH+](CC)CC` stands 8.2. The same measure, in the same setting: under `O=[N+]([O-])c1cccc(C2NCCS2)c1` (centres undefined) stands 4.63; under `CC(C)(S)[C@@H](C(=O)[O-])n1ccnc1Cc1ccccc1`, 6.98. Same read-out and setting: under `C#CC(C)(C)N(C)C(C)(C)C#C` stands 6.65; under `O=C([O-])CN(CC(=O)[O-])Cc1nc2ccccc2[nH]1`, 6.87; under `CCOCCN(CCOCC)c1ccccc1`, 4.1. For `Cc1cc(Br)cc(C)c1N(C)C`, the pKa is 4.36. In turn, `c1ccc2c(CC3=NCCN3)cccc2c1` registered a pKa of 10.3. The same measure, in the same setting: under `CC(=O)NN=C1CCN(C)CC1` stands 7.45; under `COc1cncnc1[O-]`, 8.6. Same read-out and setting: under `c1ccc(-c2ccn[nH]2)nc1` stands 4.46; under `CC(C)(C)N1NC2CCC1C21CC1` (centres undefined), 9.33.

`Nc1cccc2c1ccc1ncccc12` gave a pKa of 5.2. On the same count and under the same terms, under `CC(C)(C)NNC(C)(C)C` stands 8.31; under `CN(C)/C=N/c1cccc(Cl)c1`, 7.97. On the same count and under the same terms, under `Cc1cnc2c(cc(C)c3c(C)ccnc32)c1C` stands 6.45; under `CC(=O)Nc1cccc2nc3ccccc3cc12`, 4.4. Same read-out and setting: next, `CCCCCCCCCNCc1ccc(C)cc1`: 9.48.

`O=C(O)c1cscn1` displayed a pKa of 2.9. The compound `C/C=C/c1ccc2cccnc2c1O` returned a pKa of 4.66. Still for that read-out and setting: next, `[NH3+]c1ccc(-c2cnc(-c3ccc(Cl)cc3)o2)cc1`: 0.27; `CNOC`: 4.75; `C=CCN1CCCCC1`: 9.66.

`Cc1ncc(CO)c(C)c1OCc1ccccc1` yielded a pKa of 5.52. Still for that read-out and setting: under `C/C(CCN(C)C)=N\[O-]` stands 11.2; under `CCN1CCC=C1C`, 11.9; under `CCN(CC)/N=C(\N)CC[Si](C)(C)C`, 10.7. Still for that read-out and setting: next, `CNc1cccc2ccccc12`: 3.7. Same read-out and setting: next, `CC1=CCN2CC[C@@H](O)[C@@H]12`: 9.6; `Nc1ccc2c(c1)Cc1c(O)cccc1-2`: 4.63; `CN(C)c1ccccc1C(=O)[O-]`: 8.46. `Nc1nsc2ccccc12` yielded a pKa of 2.45. In the case of `COc1ccc(Nc2ccccc2)cc1`, the pKa worked out at 1.38.

Values taken from the pKa sets of Baltruschat and Czodrowski (2020).
